Assay results from patent US20120022294A1, “Axomadol or a Metabolite Thereof for Use in the Treatment of Irritable Bowel Syndrome” (priority 2010, published 2012).
Counter-ions that a name gives are not always drawn. Like-named read-outs stand apart in the source and are kept apart here.

How the values were obtained:
[1] = test system: visceral hyperalgesia induced by rectal administration of mustard oil in mice; assay: visceral hyperalgesia / mustard oil colitis in mice; type: in vivo
From the text: The effects of axomadol hydrochloride on visceral hyperalgesia were studied, which was induced by rectal administration of mustard oil in mice (according to Laird J M, Martinez-Caro L, Garcia-Nicas E, Cervero F. (2001) A new model of visceral pain and referred hyperalgesia in the mouse. Pain 92: 335-42). The typical visceral pain behaviour was quantified in three parameters: During the first minutes after mustard oil administration spontaneous visceral pain behaviour occurs. Following this period of spontaneous pain, referred allodynia and hyperalgesia can be quantified by means of von Frey filaments of different strength stimulating the abdomen of the mice.
Male NMRI mice (28-38 g body weight) from a commercial breeder (Iffa Credo, France) were used. The animals were housed under standardized conditions: light/dark cycle (06.00-18.00 h light, 18.00-06.00 h dark), room temperature 20-24° C., relative air humidity 35-70%, 15 air changes per hour, air movement <0.2 m/sec, tap water and standard diet ad libitum, macrolon type 4 cages with maximally 30 animals per cage. There were at least 5 days between delivery and start of the experiment.
Axomadol hydrochloride was dissolved in vehicle solution and injected intra-venously.
Doses: 0.464; 1.0; 2.15; 4.64; 10.0 mg/kg i.v. Administration volume: 10 ml/kg Vehicle solution: 0.9% NaCl solution (Fresenius, Bad Homburg, FRG) Mustard oil was dissolved in vehicle solution and administered intra-rectally Dose: 50 μl of a 3.5 Vol.−% solution per animal Vehicle solution: PEG 200
2.3.1 Induction of Colitis Animals were habituated to the test conditions for 20-30 min and stimulated with von Frey filaments onto the abdominal wall. 10 stimulations with von Frey filaments of 1, 4, 8, 16, and 32 mN were applied in ascending order (i.e. 10×1 mN, 10×4 mN, etc.). Animals with more than 25 positive reactions during this phase were excluded. Vaseline was applied in the perianal area to avoid the stimulation of somatic areas with the irritant chemical. Colitis is induced by rectal administration of 50 μl mustard oil (3.5%). Control animals are treated with vehicle (50 μl PEG200).
Axomadol hydrochloride or vehicle was given intravenously (i.v.) 5 min before mustard oil. Seven animals were tested per group. The following parameters were counted:
2-12 min after mustard oil: • 1. Spontaneous pain score: counting and scoring of visceral pain behaviours (Score 1-2, 1=licking of abdominal wall, 2=stretching, squashing, mounting, backward-movement or contraction of the flank muscles). 20-40 min after mustard oil • 2. […]
Data were analysed by means of two-factor analysis of variance (ANOVA) with repeated measures. Significance of treatment-, time- or treatment x time interaction effects was analyzed by means of Wilks' Lambda statistics. […]

[2] = test system: isolated guinea pig ileum; assay: twitch contractions (electrically induced) of the isolated guinea pig ileum; details: for IC50: Cavia porcellus; for threshold of reduction of electrically induced contractions: concentration-dependent; for % reversal by naloxone: naloxone 10^−6 M added after last application of test compound; for inhibitory effect reversed after addition of naloxone: opioid receptor antagonist naloxone 1 μM; for maximal reduction: twitch reaction remaining as % of pre-value at highest concentration
Procedure: It was investigated whether axomadol and (+)-O-demethyl axomadol are able to modulate gastrointestinal motility.
Male guinea pigs (PBW, Charles River, Kiβlegg, FRG) weighing 250-350 g were used for the study. The animals were kept under standard housing conditions: light/dark rhythm (06.00-18.00 h light, 18.00-6.00 h dark); room temperature 22±2° C., relative air humidity 55±5%; 15 air changes per hour, air movement <0.2 m/sec. The animals were given water and an exclusive diet of “Herilan RM 204” (Eggersmann Company, Rinteln/FRG) ad libitum. Before experimental preparation they were kept in groups of up to 5 animals in type IV Makrolon cages (Ebeco Company, Castrop-Rauxel, FRG). There were at least 4 days between delivery and testing.
Axomadol hydrochloride and (+)-O-demethyl axomadol hydrochloride were dissolved in aqua bidest. Final concentrations in the organ bath ranged from 10^−7 to 3.2·10^−4 M and from 10^−8 to 3.2·10^−5 M for axomadol hydrochloride and (+)-O-demethyl axomadol hydrochloride respectively (cumulative drug application). Naloxone (10^−6 M) was used as opioid antagonist.
A four-compartment organ bath (Dept. Biotechnology, Grunenthal GmbH) consisting of 20 ml acrylic glass compartments, organ supports and force transducers (F10 force transducers, Type 375, HSE, FRG) was used for the measurement of isometric contractions. The organ bath was filled and emptied by means of a semi-automatic dosing arrangement. All experiments were performed at […]. The nutrient solution was gassed with carbogen (95% O2/5% CO2)) both in the nutrient storage chamber and in the organ bath starting 30 min before the beginning and throughout the experiment.
The nutrient solution had the following composition:
Parameter: contraction force [g]
Guinea pigs were killed in CO2-atmosphere and the ileum was dissected free from adhering tissue, removed and suspended in the organ bath. After an incubation period of at least 30 min, isometric contractions (twitch reactions) were elicited by transmural stimulation pulses (duration 1 ms, amplitude 180 mA at 0.03 Hz; stimulator A310, WPI, FRG). A pre-tension of 1 g was applied to the preparations and constantly readjusted during the equilibration period (at least 30 minutes) while the nutrient was changed twice.
After having registered the pre-value, test compounds were added to the organ bath in cumulative concentration steps as indicated. The exposure time for each concentration was 6 minutes. After the last application of the test compound, the opioid-antagonist naloxone (10^−6 M) was added without previous wash out of the test compound.
1.5 Evaluation Data was calculated as the mean electrically stimulated contraction force during a period of 4 to 6 minutes after compound application and expressed as percentage of the pre-value. The mean contraction force during a period of 2 minutes before compound application was taken as pre-value. All results were expressed as means±s.e.m. of ≧4 single experiments. For determination of IC50 values, regression lines (y=f log x) were constructed and IC50 values with s.e.m. were calculated using a computer-assisted regression analysis program (Grünenthal GmbH). The reversal of the test compound's activity by the antagonist was determined according to the following equation:
with max. effect being: 100%−% reduction of pre-value of twitch reaction at highest dose of test compound.

[3] = isolated guinea pig ileum, mean ± s.e.m., read-out: IC50 value, reduction of electrically induced contractions
[4] = twitch contractions of the guinea pig ileum, cumulative application, read-out: IC50

SMILES: COc1cccc([C@@]2(O)C[C@H](O)CC[C@@H]2CN(C)C)c1 (racemic) [axomadol hydrochloride, (1RS,3RS,6RS)-6-dimethylaminomethyl-1-(3-methoxyphenyl)-cyclohexane-1,3-diol]
- inhibition of all three visceral pain parameters ([1]; 0.464, 1.0, 2.15, 4.64 and 10.0 mg/kg i.v.): dose dependent and significant inhibition
- ED50 (95% confidence intervals), referred allodynia ([1]; i.v. 5 min before mustard oil, 1 mN von Frey filament, 20-40 min after mustard oil): 6.13 (5.56-6.60-4.75) mg/kg i.v.
- ED50 (95% confidence intervals), spontaneous visceral pain behaviour ([1]; i.v. 5 min before mustard oil, 2-12 min after mustard oil): 2.62 (1.79-4.05) mg/kg i.v.
- ED50 (95% confidence intervals), referred hyperalgesia ([1]; i.v. 5 min before mustard oil, 16 mN von Frey filament, 20-40 min after mustard oil): 2.72 (1.58-5.46) mg/kg i.v.
- IC50 [2, 3]: 39.2 ± 2.8 µM
- IC50 [2, 4]: 39.2 ± 2.8 µM
- twitch reactions, reduction to % of pre-value ([2]; increasing concentrations up to 320 μM): 32.1 % of pre-value
- threshold of reduction of electrically induced contractions ([2]; isolated guinea pig ileum): around 10 μM
- % reversal by naloxone [2]: 83.4%
- inhibitory effect reversed after addition of naloxone [2]: 83.4%
- maximal reduction [2]: 32.1 % pre-value

SMILES: CN(C)CC1CCC(O)CC1(O)c1cccc(O)c1 (single isomer, unassigned; (+)) [(+)-O-demethyl axomadol hydrochloride, 6-dimethylaminomethyl-1-(3-hydroxyphenyl)-cyclohexane-1,3-diol]
- IC50 [2, 3]: 0.43 ± 0.09 µM
- IC50 [2, 4]: 0.43 ± 0.09 µM
- twitch reactions, reduction to % of pre-value ([2]; increasing concentrations up to 32 μM): 16.6±3 % of pre-value
- threshold of reduction of electrically induced contractions ([2]; isolated guinea pig ileum): around 0.032 μM
- % reversal by naloxone [2]: 69.1%
- inhibitory effect reversed after addition of naloxone [2]: 69.1%
- maximal reduction [2]: 16.6 % pre-value
